Results published in patent US20120270945A1, “METHOD FOR MODULATING CYTOKINE ACTIVITY” (SUCAMPO AG, priority 2011, published 2012).

Columns and labels:
TNF-alpha = TNF-alpha mRNA expression in intestinal tissue of DSS-induced ulcerative colitis rats (real-time PCR); assay type: in vivo, rat
Description: (§1) Male LEW/SsN rats were given free access to 3% dextran sulfate sodium (DSS) in drinking water to induce ulcerative colitis. (−)-7-{(2R,4aR,5R,/aR)-2-[(3S)-1,1-difluoro-3-methylpentyl]-2-hydroxy-6-oxooctahydrocyclopenta[b]pyran-5-yl}heptanoic acid (Compound A) was orally administered to the animals twice a day for 10 days. The same amount of the vehicle was administered to control animals. At the 10 days after start of 3% DSS drinking, animals were sacrificed and intestinal tissues were excised. The mRNA expressions of IL-12, IL-1beta, IL-6, and TNF-alpha in the intestinal tissues were measured by real-time polymerase chain reaction technique.
(§2) Each value is relative to the reference gene (GAPDH) level. Data are represented as mean (Arbitrary unit) from 3 to 4 animals.

IL-6 = IL-6 mRNA expression in intestinal tissue of DSS-induced ulcerative colitis rats (real-time PCR); assay type: in vivo, rat
Description: as §1, §2

IL-12 = IL-12 mRNA expression in intestinal tissue of DSS-induced ulcerative colitis rats (real-time PCR); assay type: in vivo, rat
Description: as §1, §2

[1] = Incidence of esophagitis in patients who take NSAIDs (naproxen); assay type: in vivo, human; settings: patients on 500 mg naproxen twice a day
Description: Patients who take NSAIDs were randomized to one of four treatment groups. All patients received 500 mg of naproxen twice a day. One group received placebo while the other three groups received 18, 36 or 54 mcg of Compound A, respectively, for 12 weeks. The incidence of esophagitis was 10.0%, 6.5% or 6.5% for the groups received 18, 36 or 54 mcg of Compound A, respectively, while it was 20.0% for the group received placebo.

IL-1beta = IL-1beta mRNA expression in intestinal tissue of DSS-induced ulcerative colitis rats (real-time PCR); assay type: in vivo, rat
Description: as §1, §2

SOCS-1 = SOCS-1 expression in colon of DSS-induced colitis model mice (real-time PCR); assay type: in vivo, mouse; settings: C57/B6J mice, 2% DSS for 7 days, 10 μM solution orally once daily for 7 days, GAPDH as reference
Description: The experimental model used C57/B6J mice (7-8 weeks old). Colitis was induced by administration of 2% dextran sulfate sodium (DSS) in drinking water for 7 days. Ten (10) μM solution of Compound B ((−)-7-[(2R,4aR,5R,7aR)-2-(1,1-difluoropentyl)-2-hydroxy-6-oxooctahydrocyclopenta[b]pyran-5-yl]heptanoic acid) was administered orally once daily for 7 days from the day of starting DSS treatment. One day after last administration, animals were sacrificed and colons were excised. After extraction of mRNA from colon tissues, real-time PCR analysis of SOCS-1 was conducted using house-keeping gene GAPDH as a reference.

[2] = DSS-induced ulcerative colitis model rats, versus vehicle control
[3] = male LEW/SsN rats, 3% DSS drinking water, oral twice a day for 10 days, intestinal tissue, mean from 3 to 4 animals

Compound | effect on expression of TNF-alpha increased by DSS (in words) (TNF-alpha; [2]) | expression of TNF-alpha (mRNA, relative to GAPDH) (TNF-alpha; [3]) [Arbitrary unit] | effect on expression of IL-6 increased by DSS (in words) (IL-6; [2]) | expression of IL-6 (mRNA, relative to GAPDH) (IL-6; [3]) [Arbitrary unit] | effect on expression of IL-12 increased by DSS (in words) (IL-12; [2]) | expression of IL-12 (mRNA, relative to GAPDH) (IL-12; [3]) [Arbitrary unit] | incidence of esophagitis ([1]; 18 mcg for 12 weeks (placebo 20.0%)) [%] | incidence of esophagitis ([1]; 36 mcg for 12 weeks (placebo 20.0%)) [%] | incidence of esophagitis ([1]; 54 mcg for 12 weeks (placebo 20.0%)) [%] | effect on expression of IL-1beta increased by DSS (in words) (IL-1beta; [2]) | expression of IL-1beta (mRNA, relative to GAPDH) (IL-1beta; [3]) [Arbitrary unit] | effect on overexpression of SOCS-1 gene (in words) (SOCS-1)
CC[C@H](C)CC(F)(F)[C@@]1(O)CC[C@H]2[C@@H](CC(=O)[C@@H]2CCCCCCC(=O)O)O1 [Compound A, (−)-7-{(2R,4aR,5R,/aR)-2-[(3S)-1,1-difluoro-3-methylpentyl]-2-hydroxy-6-oxooctahydrocyclopenta[b]pyran-5-yl}heptanoic acid] | reduced | 4.68 | reduced | 49.25 | reduced | 0.99 | 10.0 | 6.5 | 6.5 | reduced | 54.83 | 
CCCCC(F)(F)[C@@]1(O)CC[C@H]2[C@@H](CC(=O)[C@@H]2CCCCCCC(=O)O)O1 [Compound B, (−)-7-[(2R,4aR,5R,7aR)-2-(1,1-difluoropentyl)-2-hydroxy-6-oxooctahydrocyclopenta[b]pyran-5-yl]heptanoic acid] |  |  |  |  |  |  |  |  |  |  |  | reduced
